Test results taken from patent US20260184675A1, “CHIRAL ISOMERIC SULFITE COMPOUND AND APPLICATION THEREOF” (Chengdu Hanova BioSciences Co., Ltd, priority 2024, published 2026).

What was measured:
[1] = tested on: eggs of Harmonia axyridis; experiment: Effect on hatching of eggs of Harmonia axyridis, egg card immersion; format: in vivo; details: 100 ppm, listed as 19-(S, S)
Method in brief: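 Egg cards (~20 eggs each) dipped 30 s in 100 ppm insecticide, air dried and kept moist at 27° C; 5 cards per treatment, 3 replicates. Hatching assessed 4 days after treatment against pre-treatment egg counts, and control effect calculated by formula.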

eggs of Panonychus citri = experiment: Effect on hatching of eggs of Panonychus citri, leaf disc method; format: in vivo; details: Panonychus citri eggs, 1 ppm, listed as 19-(S, S)
eggs of Aleyrodidae = experiment: Effect on hatching of eggs of Aleyrodidae, leaf disc method; format: in vivo; details: Aleyrodidae eggs, 10 ppm, listed as 19-(S, S)
Method in brief: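 Leaf discs carrying Aleyrodidae eggs were first examined microscopically to record a baseline egg count. They were then dipped for 10 seconds in compound solution at 10 ppm or in clear water, taken out, and incubated with humidity maintained. Five days after delivery, the number of hatched larvae was recorded to assess hatching inhibition.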

[2] = tested on: eggs of Spodoptera litura; experiment: Effect on hatching of eggs of Spodoptera litura, egg piece soaking; format: in vivo; details: Spodoptera litura eggs, 500 ppm, listed as 19-(S, S)
Method in brief: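 Egg pieces of about 60 eggs were soaked 10 min in test agent at 500 ppm, blotted, then held singly at 24±1 °C, 80±10% RH, 12:12 L:D. Hatched and unhatched eggs were counted on day 4 to give hatching rate and control effect; 3 replicates.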

Magnaporthe grisea = format: cell-based; details: 100 ppm
[3] = 5 days after delivery, replicate 1
[4] = 5 days after delivery, replicate 2
[5] = 5 days after delivery, replicate 3

`CCC(COc1ccc(Cl)cc1Cl)OS(=O)OCCF` [19-(S,S)] was tested, and the “Number of hatched larvae 4 days after insecticide delivery, Replicate 1” value ([1]; Harmonia axyridis egg cards, immersed 30 seconds, replicate 1) was 13, the “Number of hatched larvae 4 days after insecticide delivery, Replicate 2” value ([1]; Harmonia axyridis egg cards, immersed 30 seconds, replicate 2) was 15 and the “Number of hatched larvae 4 days after insecticide delivery, Replicate 3” value ([1]; Harmonia axyridis egg cards, immersed 30 seconds, replicate 3) was 16. The “Hatching rate (%), Replicate 1” value ([1]; Harmonia axyridis eggs, 4 days after delivery, replicate 1) was 13.68%, the “Hatching rate (%), Replicate 2” value ([1]; Harmonia axyridis eggs, 4 days after delivery, replicate 2) was 14.56% and the “Hatching rate (%), Replicate 3” value ([1]; Harmonia axyridis eggs, 4 days after delivery, replicate 3) was 15.38%. For the same compound, the “Hatching rate (%), Replicate 1” value (eggs of Panonychus citri; [3]) was 10.08%, the “Hatching rate (%), Replicate 2” value (eggs of Panonychus citri; [4]) was 9.90% and the “Hatching rate (%), Replicate 3” value (eggs of Panonychus citri; [5]) was 10.47%. For the same compound, the “Number of hatched larvae 5 days after insecticide delivery, Replicate 1” value (eggs of Panonychus citri; leaf disc, replicate 1) was 12, the “Number of hatched larvae 5 days after insecticide delivery, Replicate 2” value (eggs of Panonychus citri; leaf disc, replicate 2) was 10 and the “Number of hatched larvae 5 days after insecticide delivery, Replicate 3” value (eggs of Panonychus citri; leaf disc, replicate 3) was 9. For the same compound, the “Hatching rate (%), Replicate 1” value (eggs of Aleyrodidae; [3]) was 12.36%, the “Hatching rate (%), Replicate 2” value (eggs of Aleyrodidae; [4]) was 12.03% and the “Hatching rate (%), Replicate 3” value (eggs of Aleyrodidae; [5]) was 12.28%. The “Number of hatched larvae 5 days after insecticide delivery, Replicate 1” value (eggs of Aleyrodidae; leaf disc, replicate 1) was 11, the “Number of hatched larvae 5 days after insecticide delivery, Replicate 2” value (eggs of Aleyrodidae; leaf disc, replicate 2) was 16 and the “Number of hatched larvae 5 days after insecticide delivery, Replicate 3” value (eggs of Aleyrodidae; leaf disc, replicate 3) was 14. For the same compound, the “Hatching rate (%), Replicate 1” value ([2]; 4 days after delivery, replicate 1) was 50.00%, the “Hatching rate (%), Replicate 2” value ([2]; 4 days after delivery, replicate 2) was 51.72% and the “Hatching rate (%), Replicate 3” value ([2]; 4 days after delivery, replicate 3) was 50.91%. The “Number of unhatched larvae 4 days after insecticide delivery, Replicate 1” value ([2]; soaked 10 minutes, replicate 1) was 30, the “Number of unhatched larvae 4 days after insecticide delivery, Replicate 2” value ([2]; soaked 10 minutes, replicate 2) was 28 and the “Number of unhatched larvae 4 days after insecticide delivery, Replicate 3” value ([2]; soaked 10 minutes, replicate 3) was 27. The “inhibitory rate against Magnaporthe grisea (in words)” value (Magnaporthe grisea) was “strong inhibitory rate”, the “Average antifungal rate (%)” value (Magnaporthe grisea; 96-well plate, average of 3 replicates) was 84.69% and the “Antifungal rate of Magnaporthe grisea (%), Replicate 1” value (Magnaporthe grisea; 96-well plate, replicate 1) was 86.52%. The “Antifungal rate of Magnaporthe grisea (%), Replicate 2” value (Magnaporthe grisea; 96-well plate, replicate 2) was 83.17% and the “Antifungal rate of Magnaporthe grisea (%), Replicate 3” value (Magnaporthe grisea; 96-well plate, replicate 3) was 84.38%.
